In data set [1] the target is T1, lysine-specific permease (LysP) (Pseudomonas aeruginosa, UniProt Q9HVG3). Nature of the data set: microscale thermophoresis. It is filed as binding. The arrangement: purified GFP-free LysP in LMNG.
For data set [2], the target named is T1, lysine-specific permease (LysP). Nature of the data set: microscale thermophoresis; inhibition of [3H]L-lysine transport in LysP proteoliposomes. It is filed as binding. On the set-up: purified GFP-free LysP in LMNG. On the technique in general: MST reads how a fluorescent partner responds to local heating, with and without ligand.
Data set [3] has the same target. In words: cryo-EM structure ([…] Å) and microscale thermophoresis; [3H]L-lysine transport in proteoliposomes (cold L-lysine IC50 […]). It is filed as binding. The arrangement: purified GFP-free LysP in LMNG (MST); LysP-Nb5755 complex (cryo-EM); with nanobody Nb5755 (cryo-EM structure only).
The target in data set [4] is T2, LysP-GFP fusion (P. aeruginosa LysP with GFP-His8) (P. aeruginosa strain PAO1, UniProt Q9HVG3).
T2 construct: lysine-specific permease LysP, P. aeruginosa strain PAO1, UniProt Q9HVG3; the same construct as m1 in pWaldo-GFPd, with the GFP-His8 fusion not cut off; The GFP fluorescence is the read-out of the GFP-TS assay; source: E. coli (DE3) C43, in membranes solubilised with 1% DDM, not purified
Nature of the data set: GFP thermal shift (GFP-TS) assay; membranes with LysP-GFP solubilised in 150 mM NaCl, 20 mM Tris-HCl pH 7.5, 1% DDM with or without 1 uM Nb5755, 1 h at 4 °C; 1% beta-OG added; heated 10 min at 4-100 °C; GFP fluorescence of the supernatant. Particulars: one partner purified.

Consider `NCCCC[C@@H](N)C(=O)O` [D-lysine], for which, in data set [1], the Kd is 151 µM.
`NCCSC[C@H](N)C(=O)O` [L-4-thialysine, S-(2-aminoethyl)-L-cysteine] gave a Kd in data set [2] of 31 µM.
In data set [3], `NCCCC[C@H](N)C(=O)O` [L-lysine] yielded a Kd of 14 µM.

B1: nanobody Nb5755 (VHH)
VHH: QVQLQESGGGLVQGGSLRLSCAASGRTFSIYGMAWVRQASGKEREFVAAMPRGGGTTNYADSVKGRFSISRDNAKNTVDLQMNSLKPEDTAVYYCVADRGFTLRLGIQHDYWGQGTQVTVSS
notes: raised in a llama immunised with LysP and selected by phage display; Library cloned into the phage display vector pMESy4, which bears the C-terminal His6 and EPEA tags; also called Nanobody 5755; CA5755; source: E. coli BL21 (DE3), periplasm, purified (Ni-NTA, SEC)
For B1, the “increase in melting temperature” value in data set [4] was 20 °C.

The term Kd denotes the constant that tells how readily two partners part at equilibrium. Read a low Kd as a tighter complex.

(Values after article PMC12764776, “Structural basis of specific lysine transport by Pseudomonas aeruginosa permease LysP” (Nature Communications, 2025).)
